Measured values published in paper PMC9396876, “GRK3 is a poor prognosticator and serves as a therapeutic target in advanced gastric adenocarcinoma” (Journal of Experimental & Clinical Cancer Research : CR, 2022).

Assays:
GRK2 = target: T1, GRK2 (Homo sapiens, UniProt P25098); assay: in vitro kinase assay (Z-LYTE; ADP-Glo); format: biochemical
T1 sequence (P25098 1-689): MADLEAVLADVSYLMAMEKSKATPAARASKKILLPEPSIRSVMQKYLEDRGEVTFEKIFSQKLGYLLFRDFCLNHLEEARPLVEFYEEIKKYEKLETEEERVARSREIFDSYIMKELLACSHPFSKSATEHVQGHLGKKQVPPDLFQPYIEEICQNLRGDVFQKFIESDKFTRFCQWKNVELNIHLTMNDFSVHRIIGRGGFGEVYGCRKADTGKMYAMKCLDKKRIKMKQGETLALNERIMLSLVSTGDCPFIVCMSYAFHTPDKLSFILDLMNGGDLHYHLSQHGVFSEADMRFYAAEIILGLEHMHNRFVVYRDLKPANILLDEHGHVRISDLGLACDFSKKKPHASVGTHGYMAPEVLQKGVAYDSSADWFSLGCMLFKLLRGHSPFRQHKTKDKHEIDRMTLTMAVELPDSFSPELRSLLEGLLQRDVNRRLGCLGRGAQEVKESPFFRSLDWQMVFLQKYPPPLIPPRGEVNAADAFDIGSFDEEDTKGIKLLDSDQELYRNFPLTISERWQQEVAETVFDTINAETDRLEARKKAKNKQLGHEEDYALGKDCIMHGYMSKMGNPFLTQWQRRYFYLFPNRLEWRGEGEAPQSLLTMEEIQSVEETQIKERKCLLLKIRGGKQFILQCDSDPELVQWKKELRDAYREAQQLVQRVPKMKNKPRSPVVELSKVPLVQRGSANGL

[1] = target: T2, GRK3 (G protein-coupled receptor kinase 3) (Homo sapiens, UniProt P35626); assay: in vitro kinase assay (Z-LYTE; ADP-Glo); format: biochemical
T2 construct: recombinant GRK3 protein
T2 sequence (P35626 1-688): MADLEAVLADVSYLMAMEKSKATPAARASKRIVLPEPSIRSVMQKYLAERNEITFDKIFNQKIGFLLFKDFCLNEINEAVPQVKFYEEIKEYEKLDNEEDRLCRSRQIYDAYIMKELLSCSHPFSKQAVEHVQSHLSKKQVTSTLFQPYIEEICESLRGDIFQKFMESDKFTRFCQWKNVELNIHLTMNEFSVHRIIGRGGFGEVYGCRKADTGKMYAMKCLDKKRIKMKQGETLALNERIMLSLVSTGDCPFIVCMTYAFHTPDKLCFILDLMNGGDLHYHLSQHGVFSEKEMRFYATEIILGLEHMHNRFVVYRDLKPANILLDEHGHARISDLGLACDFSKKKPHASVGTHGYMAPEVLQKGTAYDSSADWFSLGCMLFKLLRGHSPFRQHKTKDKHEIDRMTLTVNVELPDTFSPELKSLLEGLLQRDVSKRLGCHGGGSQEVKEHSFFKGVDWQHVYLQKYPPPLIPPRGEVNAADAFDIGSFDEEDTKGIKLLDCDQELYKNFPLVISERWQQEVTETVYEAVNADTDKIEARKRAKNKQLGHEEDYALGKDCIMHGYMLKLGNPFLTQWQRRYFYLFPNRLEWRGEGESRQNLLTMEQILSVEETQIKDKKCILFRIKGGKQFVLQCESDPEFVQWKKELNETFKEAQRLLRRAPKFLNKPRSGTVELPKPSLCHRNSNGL

Cn1cc(-c2[nH]c3cc(NC(=O)[C@H](N)C4CCCCC4)cc4c3c2C=NNC4=O)cn1 [LD2]
IC50 (GRK2): 1950 nM | IC50 [1]: 82 nM
